In US9012169B2, “Metabolic method to identify compounds having flavor or fragrance” (Givaudan S.A., priority 2004, dated 2015):

Assays:
[1] = biological target: T1, rat olfactory receptor 17 (Rattus norvegicus, UniProt P23270); assay: Receptor screen using HEK293 cells expressing Galpha-15,16 and the rat olfactory receptor 17, intracellular calcium; format: cell-based; details: octanol incubated with ADH (octanal present) versus control without enzyme
T1 construct: expressed in transfected cells; host or cells: HEK293
T1 sequence (P23270 1-327): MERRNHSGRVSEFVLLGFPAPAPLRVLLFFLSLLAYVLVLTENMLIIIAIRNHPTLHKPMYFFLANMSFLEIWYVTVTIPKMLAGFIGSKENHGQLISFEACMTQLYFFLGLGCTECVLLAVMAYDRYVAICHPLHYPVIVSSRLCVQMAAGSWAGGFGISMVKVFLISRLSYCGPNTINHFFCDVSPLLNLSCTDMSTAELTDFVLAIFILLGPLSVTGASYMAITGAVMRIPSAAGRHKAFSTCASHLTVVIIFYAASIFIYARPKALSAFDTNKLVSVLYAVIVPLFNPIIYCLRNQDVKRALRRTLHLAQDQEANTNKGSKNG
Procedure: Octanol is incubated with alcohol dehydrogenase as described in example 10, controls without alcohol dehydrogenase are incubated accordingly. In the presence of the enzyme, the metabolite of octanol, which is octanal, is present as shown in example 10.
The rat olfactory receptor 17 together with the Galpha15,16 are expressed by co-transfection in HEK293 cells as described by Krautwurst et al. (1998), Cell 95:917-926. Transfected HEK293 cells are plated on coverslips, 24-well tissue culture plates, and microtiter plates. These coverslips and plates are incubated with Fura-2 as described in example 8. The microtiter plates are incubated as described by Krautwurst et al. (1998).
The supernatant is transferred to an empty container and diluted with 2×HEPES (4 mM Ca^2+). This dilution is used as a sample in the receptor screen as described in Example 8, using HEK293 cells that express Galpha-15,16 and the rat olfactory receptor 17.
Fluorescence recording is performed to monitor any increase in intracellular, cytoplasmic calcium levels.

[2] = biological target: T2, human recombinant carboxyl esterase (CE) (Homo sapiens, UniProt P23141); assay: Incubation with CE in the absence of the standard substrate, metabolites by GC and GC-MS; format: in vitro ADME
T2 construct: In order to clone the full-length gene encoding CE; made in house; host or cells: Sf9 insect cells, baculovirus (pBlueBac4.5), used as microsomes
T2 sequence (P23141 18-566 isoform P23141-3 limits assumed): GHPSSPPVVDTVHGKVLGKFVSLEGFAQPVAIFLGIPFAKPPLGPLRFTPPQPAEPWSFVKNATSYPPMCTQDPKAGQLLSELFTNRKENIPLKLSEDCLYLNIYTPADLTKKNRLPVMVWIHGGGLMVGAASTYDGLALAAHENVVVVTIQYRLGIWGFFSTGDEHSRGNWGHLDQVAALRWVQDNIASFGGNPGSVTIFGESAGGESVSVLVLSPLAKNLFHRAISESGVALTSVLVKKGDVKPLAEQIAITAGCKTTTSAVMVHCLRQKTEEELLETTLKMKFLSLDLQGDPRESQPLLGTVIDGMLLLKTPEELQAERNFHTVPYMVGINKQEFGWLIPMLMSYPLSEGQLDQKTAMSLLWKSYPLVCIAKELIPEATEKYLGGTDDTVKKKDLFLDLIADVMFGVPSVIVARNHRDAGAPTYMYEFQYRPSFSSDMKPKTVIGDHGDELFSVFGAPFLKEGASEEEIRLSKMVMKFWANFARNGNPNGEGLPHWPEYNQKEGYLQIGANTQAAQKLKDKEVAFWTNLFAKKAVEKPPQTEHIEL
Procedure: Incubation with CE is performed in the absence of the standard substrate using 10 mU of CE in a total volume of 0.5 ml with the substrate at 0.25 mM and 50 mM potassium phosphate as the assay buffer.
GC and GC-MS analysis show the formation of an additional peak which is identified as menthol, which is a metabolite of menthyl-lactate.

hTRPM8 = hTRPM8 (Homo sapiens, UniProt Q7Z2W7); assay: Receptor screen using hTRPM8-expressing CHO-K1/FRT cells, Fura-2 intracellular calcium; details: for Receptor ligand character at hTRPM8: conclusion from the receptor screen after the metabolic reaction with CE; for Intracellular calcium levels in hTRPM8-expressing CHO-K1 cells: menthyl-lactate incubated with CE (menthol formed) versus control with substrate but without CE
hTRPM8, sequence (Q7Z2W7 whole entry): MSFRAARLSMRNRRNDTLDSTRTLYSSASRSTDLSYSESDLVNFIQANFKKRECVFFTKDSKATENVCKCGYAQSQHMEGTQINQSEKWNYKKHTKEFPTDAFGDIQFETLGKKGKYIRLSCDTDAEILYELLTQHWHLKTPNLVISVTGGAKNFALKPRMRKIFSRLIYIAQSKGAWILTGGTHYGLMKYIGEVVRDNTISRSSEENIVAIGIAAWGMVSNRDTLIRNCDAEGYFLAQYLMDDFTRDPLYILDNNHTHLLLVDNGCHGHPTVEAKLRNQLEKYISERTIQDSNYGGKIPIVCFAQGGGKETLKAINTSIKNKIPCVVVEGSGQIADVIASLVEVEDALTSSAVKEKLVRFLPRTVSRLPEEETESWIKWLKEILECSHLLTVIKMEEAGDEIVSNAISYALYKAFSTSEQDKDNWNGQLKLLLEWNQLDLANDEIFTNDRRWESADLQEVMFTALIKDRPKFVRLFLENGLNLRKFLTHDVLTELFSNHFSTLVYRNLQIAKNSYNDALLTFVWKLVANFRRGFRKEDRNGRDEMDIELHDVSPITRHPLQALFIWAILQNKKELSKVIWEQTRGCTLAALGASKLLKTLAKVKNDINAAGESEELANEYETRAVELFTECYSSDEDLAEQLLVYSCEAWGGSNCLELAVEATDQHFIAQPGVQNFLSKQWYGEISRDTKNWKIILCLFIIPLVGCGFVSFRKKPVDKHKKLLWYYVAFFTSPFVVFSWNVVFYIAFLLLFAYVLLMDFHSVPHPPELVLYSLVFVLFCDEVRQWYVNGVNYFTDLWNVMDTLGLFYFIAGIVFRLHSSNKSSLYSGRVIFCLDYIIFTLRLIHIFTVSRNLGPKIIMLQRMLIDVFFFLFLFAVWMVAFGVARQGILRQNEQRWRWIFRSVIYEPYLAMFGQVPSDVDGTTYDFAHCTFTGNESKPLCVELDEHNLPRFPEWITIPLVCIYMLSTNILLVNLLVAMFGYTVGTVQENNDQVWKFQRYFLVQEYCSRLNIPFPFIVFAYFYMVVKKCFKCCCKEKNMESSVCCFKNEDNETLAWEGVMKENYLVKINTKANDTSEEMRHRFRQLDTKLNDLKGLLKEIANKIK
Procedure: The stable CHO-K1/FRT cell clones that express hTRPM8 are used in a receptor screen to identify ligands of said receptor. This is performed analogous to the method described by Peier et al. (Cell (2002) 108:705-715) for the mouse TRPM8 cDNA. Glass coverslips, 24-well and 96-well tissue culture plates are used for cell plating. Cells are loaded with the calcium-sensitive fluorescent dye Fura-2 acetoxymethyl ester (Fura-2AM). As a test compound, menthol or another known ligand is diluted in a suitable buffer compatible with the CHO-K1/FRT cells.
Menthyl-lactate, a substrate of CE, is incubated with CE. Controls contain menthyl-lactate but not CE. The incubation is performed as described in Examples 7B, subject to the following modifications: after 30 min incubation time at 25° C., the samples are chilled on ice for 10 min and centrifuged. Supernatants are transferred to empty wells and diluted with 1 volume 2×HEPES (4 mM Ca^2+). The dilution is used as a test sample in a receptor screen as described in Example 8.

[3] = biological target: T2, human recombinant carboxyl esterase (CE); assay: Incubation with human recombinant carboxyl esterase (CE) and standard substrate p-nitrophenylacetate, absorbance at 405 nm; format: biochemical; details: 0.1 mM p-nitrophenylacetate, test compound 0-1 mM, 25° C., pH 7.2
Procedure: The incubation of a test compound (potential substrate or modulator of CE) and CE is performed in the presence of a standard substrate, for example p-nitrophenylacetate. The hydrolysis product of p-nitrophenylacetate is p-nitrophenol which can be detected by measuring the absorbance at 405 nm. […] The incubation mixture contains CE microsomes containing CE enzyme corresponding to 4 mU of CE in a total volume of 0.2 ml (1 U hydrolyzes 1.0 μmole of ethylbutyrate to butyrate and ethanol per min at pH 8.0, 25° C.), 0.1 mM p-nitrophenylacetate, and the test compound in 50 mM potassium phosphate buffer (pH 7.2). The test compound is employed at different concentrations, for example 0, 0.05, 0.1, 0.25, 0.5, 1 mM, to allow detection of a dose-dependent effect. Samples that contain no test compound serve as a negative control. The samples are incubated at 25° C. and the increase in absorbance at 405 nm is measured every 5 minutes for 30 minutes.

human CYP2A13 [4] = biological target: T3, human CYP2A13 (Homo sapiens, UniProt Q16696); assay: Incubation of a test compound with human CYP2A13 and identification of metabolites by GC and GC-MS; details: from decrease of umbelliferone and metabolite found by GC-MS
T3 sequence (Q16696 1-494): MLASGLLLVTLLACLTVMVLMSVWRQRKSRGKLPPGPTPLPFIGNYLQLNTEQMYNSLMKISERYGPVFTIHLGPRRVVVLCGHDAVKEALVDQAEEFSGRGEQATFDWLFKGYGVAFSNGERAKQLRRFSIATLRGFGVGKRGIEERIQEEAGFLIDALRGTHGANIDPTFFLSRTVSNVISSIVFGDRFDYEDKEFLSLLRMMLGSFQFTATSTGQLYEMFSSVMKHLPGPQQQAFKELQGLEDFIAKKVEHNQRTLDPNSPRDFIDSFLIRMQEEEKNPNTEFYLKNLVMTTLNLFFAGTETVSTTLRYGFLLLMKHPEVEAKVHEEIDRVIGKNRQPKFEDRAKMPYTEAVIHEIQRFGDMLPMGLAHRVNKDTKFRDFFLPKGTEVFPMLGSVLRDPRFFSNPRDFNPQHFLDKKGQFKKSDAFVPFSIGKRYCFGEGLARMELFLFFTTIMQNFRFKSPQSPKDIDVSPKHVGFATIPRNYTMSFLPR
Procedure: (§1) 100 pmoles human recombinant NADPH-P450 reductase contained in microsomes (BD Biosciences Gentest, USA) are incubated with 50 pmoles CYP2A13 microsomes for 15 minutes on ice. Freshly sonicated dilaurylphosphatidylcholine (DLPC, Fluka, Switzerland) is added from a stock solution (1 mg/ml in water) to give a final concentration of 0.025 mg/ml (0.5 ml final reaction volume) and the mixture is incubated on ice for 15 minutes. Potassium phosphate buffer (1 M, pH 7.4) and water are added to give a buffer concentration of 0.1M in a final volume of 0.5 ml. The test compound is prepared as a 50 mM stock solution in acetonitrile. […]
(§2) Following the 60 min incubation, the sample is chilled on ice for 10 minutes and the enzymatic reaction is stopped by extraction with 0.3 ml of the organic solvent methyl-t-butyl-ether (MTBE) that allows separating the test compound and its metabolites from the aqueous phase which contains the enzymes. 1 microliter of the MTBE fraction is analysed by GC and GC-MS to identify metabolites which are present in the enzymatic reaction, but not in the control.
(§3) For test compounds which show a decrease in umbelliferone-derived fluorescence, the incubation with the enzyme but without coumarin and analysis of metabolites is performed by GC and GC-MS as described in Example 2A. […]

[5] = biological target: T4, equine liver ADH (EC 1.1.1.1) (Equus caballus, UniProt P00327); assay: Incubation of octanol with alcohol dehydrogenase (ADH), metabolite by GC and GC-MS; format: in vitro ADME; details: octanol 0.1 M, 50 mU ADH, 10 mM NAD+, pH 8.5, 30 min at 25° C.
T4 construct: purchased Sigma-Aldrich, Switzerland
T4 sequence (P00327 2-375 limits assumed): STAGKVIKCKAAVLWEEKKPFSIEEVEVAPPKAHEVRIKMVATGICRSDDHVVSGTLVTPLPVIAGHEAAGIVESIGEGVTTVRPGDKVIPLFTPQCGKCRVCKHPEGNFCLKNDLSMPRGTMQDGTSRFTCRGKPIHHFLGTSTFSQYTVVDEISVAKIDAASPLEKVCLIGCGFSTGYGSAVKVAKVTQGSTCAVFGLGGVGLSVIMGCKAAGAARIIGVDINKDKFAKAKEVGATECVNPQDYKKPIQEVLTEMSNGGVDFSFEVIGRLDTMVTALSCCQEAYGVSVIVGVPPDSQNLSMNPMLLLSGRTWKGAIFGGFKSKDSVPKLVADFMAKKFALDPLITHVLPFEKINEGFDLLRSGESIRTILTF
Procedure: Human alcohol dehydrogenase exists as a heterogeneous group of isozymes capable of oxidizing a wide variety of aliphatic and aromatic alcohols. Any isozyme of the human enzyme can be used. In this example, equine liver ADH (EC 1.1.1.1; Sigma-Aldrich, Switzerland) is used instead of the human enzyme. Octanol is incubated with ADH in a 1-ml reaction volume containing 50 mM potassium phosphate (pH 8.5) and 10 mM NAD+ (Fluka, Switzerland). Octanol is added at a concentration of 0.1 M and the metabolic reaction is initiated by addition of 50 mU of ADH and incubated for 30 min at 25° C. The tube is centrifuged to separate any debris and the supernatant extracted with MTBE for analysis by GC and GC-MS. […] The metabolite is identified by GC analysis and GC-MS as octanal.

[6] = biological target: T5, human microsomal epoxide hydrolase (EH) (Homo sapiens, UniProt P07099); assay: Incubation of styrene oxide with human microsomal epoxide hydrolase (EH), metabolite by GC-MS; format: in vitro ADME; details: 0.5 mM styrene oxide, 0.2 mg/ml EH, pH 9, 30 min at 37° C.
T5 construct: purchased BD Bioscience, Gentest, US
T5 sequence (P07099 1-455): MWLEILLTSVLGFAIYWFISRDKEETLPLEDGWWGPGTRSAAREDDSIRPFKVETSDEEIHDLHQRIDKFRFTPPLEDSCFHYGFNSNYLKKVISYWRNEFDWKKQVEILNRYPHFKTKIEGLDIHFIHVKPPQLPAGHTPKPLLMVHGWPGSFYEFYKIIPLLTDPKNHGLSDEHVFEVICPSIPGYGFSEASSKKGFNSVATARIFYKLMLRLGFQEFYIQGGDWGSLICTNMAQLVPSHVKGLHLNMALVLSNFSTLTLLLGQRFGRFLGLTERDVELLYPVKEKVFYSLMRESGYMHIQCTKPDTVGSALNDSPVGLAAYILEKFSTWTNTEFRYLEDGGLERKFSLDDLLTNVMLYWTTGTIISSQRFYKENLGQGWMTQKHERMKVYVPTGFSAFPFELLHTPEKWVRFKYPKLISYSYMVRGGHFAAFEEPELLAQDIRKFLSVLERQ

[7] = biological target: CYP2E1 and Epoxide Hydrolase (EH) (Homo sapiens, UniProt P05181)
CYP2E1 and Epoxide Hydrolase (EH), sequence (P05181 whole entry): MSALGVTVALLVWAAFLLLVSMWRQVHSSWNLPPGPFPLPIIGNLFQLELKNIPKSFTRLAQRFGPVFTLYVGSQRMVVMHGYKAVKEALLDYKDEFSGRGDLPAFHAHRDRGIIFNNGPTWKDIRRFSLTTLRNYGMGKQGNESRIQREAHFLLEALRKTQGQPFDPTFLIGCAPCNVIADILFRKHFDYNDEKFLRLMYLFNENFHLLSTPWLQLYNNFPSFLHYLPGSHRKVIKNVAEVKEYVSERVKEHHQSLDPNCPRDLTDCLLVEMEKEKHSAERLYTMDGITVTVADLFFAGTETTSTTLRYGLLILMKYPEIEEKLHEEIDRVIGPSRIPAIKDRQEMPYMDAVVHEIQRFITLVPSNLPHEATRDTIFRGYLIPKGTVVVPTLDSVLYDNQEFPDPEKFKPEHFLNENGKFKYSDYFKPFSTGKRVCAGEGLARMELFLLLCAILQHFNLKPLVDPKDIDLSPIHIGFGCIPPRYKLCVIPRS
Procedure: Styrene is incubated in a first incubation step with microsomal membranes of baculovirus-infected Sf9 insect cell membranes that contain CYP2E1 and POR. In a second incubation step, this sample is incubated with EH.
In the first step, 3 μl styrene (77 mM in acetonitrile), 425 μl potassium phosphate buffer (50 mM, pH 7.4), 16.5 μl MgCl2, 50 pmole of CYP2E1 containing cytochrome P450 reductase (purchased from BD Bioscience, Gentest, US) and water are mixed to give a total volume of 470 μl. 30 μl NADPH (50 mM in water) are added to the sample, to the control 30 μl water are added. Sample and control are incubated at 37° C. for 1 hour.
In the second step, 50 μl of 1 M Tris-Cl, pH 9 followed by 0.4 mg/ml protein (human microsomal epoxide hydrolase microsomes, 25,000 pmole styrene oxide hydrolase activity/(min×mg protein) BD Bioscience, Gentest, US) is added and incubation is continued for 30 min.
After the second step, 100 μl acetonitrile is added to sample and control and they are placed on ice. This stops the enzymatic reaction. Compounds in the samples are extracted with MTBE.
Metabolites, i.e. additional compounds present in the sample but not in the control, are identified by GC-MS.

human CYP2A13 [8] = biological target: T3, human CYP2A13; details: 60 min, 0.3 mM, pH 7.4
Procedure: as §1, §2, §3

In the case of CCCCCCCC=O [octanal], the “Activation of the rat olfactory receptor 17 (increase in intracellular calcium levels)” value [1] is reported as “agonist”.

For CC1CCC(C(C)C)C(OC(=O)C(C)O)C1 (centres unmarked) [menthyl-lactate], the “Metabolite identified by GC and GC-MS (additional peak)” value ([2]; 10 mU CE, substrate 0.25 mM, 30 min at 25° C., no standard substrate) was “menthol”, the “Identification as substrate or modulator of human CE” value ([2]; from decrease of standard product and metabolite found) was “substrate of human CE” and the “Receptor ligand character at hTRPM8” value (hTRPM8) was “not the main receptor ligand”. For the same compound, the “Intracellular calcium levels in hTRPM8-expressing CHO-K1 cells” value (hTRPM8) was “no comparable increase” and the “Formation of the enzymatic reaction product of p-nitrophenylacetate compared to negative control” value [3] was “concentration-dependent decrease”.

With CN(C)c1ccccc1 [N,N-dimethylaniline] the “Identification as substrate or modulator of CYP2A13” value (human CYP2A13 [4]) was “substrate of CYP2A13”.

In the case of CCCCCCCCO [octanol], the “Metabolite identified by GC analysis and GC-MS” value [5] is reported as “octanal” and the “Activation of the rat olfactory receptor 17 (increase in intracellular calcium levels)” value [1] is reported as “not able to activate the receptor”.

With c1ccc(C2CO2)cc1 (centres unmarked) [styrene oxide] the “Metabolite found by GC-MS in the sample but not in the control” value [6] was “diol”.

For CC1CCC(C(C)C)C(O)C1 (centres unmarked) [menthol], the “Receptor ligand character at hTRPM8” value (hTRPM8) was “preferred hTRPM8 agonist” and the “Intracellular calcium levels in hTRPM8-expressing CHO-K1 cells” value (hTRPM8) was “increase of intracellular calcium levels”.

C=Cc1ccccc1 [styrene] was tested, and the “Identified metabolites by GC-MS (present in the sample, not in the control)” value [7] was “styrene epoxide and the corresponding diol”.

For COCC(=O)c1ccccc1 [2-methoxyacetophenone], the “Metabolite identified by GC and GC-MS (additional peak present in the sample, not in the control)” value (human CYP2A13 [8]) was 2-hydroxyacetophenone.
